Laboratory results taken from PMC9851200, “Multiparameter phenotypic screening for endogenous TFEB and TFE3 translocation identifies novel chemical series modulating lysosome function” (Autophagy, 2022).

Experiments:
Type in all cases: binding
[1] = biological target: T1, kinases (KINOMEscan panel) (Homo sapiens, UniProt P36888); settings: NEW KINOMEscan; for KINOMEscan FLT3-autoinhibited: kinase FLT3-autoinhibited
T1 sequence (P36888 27-993): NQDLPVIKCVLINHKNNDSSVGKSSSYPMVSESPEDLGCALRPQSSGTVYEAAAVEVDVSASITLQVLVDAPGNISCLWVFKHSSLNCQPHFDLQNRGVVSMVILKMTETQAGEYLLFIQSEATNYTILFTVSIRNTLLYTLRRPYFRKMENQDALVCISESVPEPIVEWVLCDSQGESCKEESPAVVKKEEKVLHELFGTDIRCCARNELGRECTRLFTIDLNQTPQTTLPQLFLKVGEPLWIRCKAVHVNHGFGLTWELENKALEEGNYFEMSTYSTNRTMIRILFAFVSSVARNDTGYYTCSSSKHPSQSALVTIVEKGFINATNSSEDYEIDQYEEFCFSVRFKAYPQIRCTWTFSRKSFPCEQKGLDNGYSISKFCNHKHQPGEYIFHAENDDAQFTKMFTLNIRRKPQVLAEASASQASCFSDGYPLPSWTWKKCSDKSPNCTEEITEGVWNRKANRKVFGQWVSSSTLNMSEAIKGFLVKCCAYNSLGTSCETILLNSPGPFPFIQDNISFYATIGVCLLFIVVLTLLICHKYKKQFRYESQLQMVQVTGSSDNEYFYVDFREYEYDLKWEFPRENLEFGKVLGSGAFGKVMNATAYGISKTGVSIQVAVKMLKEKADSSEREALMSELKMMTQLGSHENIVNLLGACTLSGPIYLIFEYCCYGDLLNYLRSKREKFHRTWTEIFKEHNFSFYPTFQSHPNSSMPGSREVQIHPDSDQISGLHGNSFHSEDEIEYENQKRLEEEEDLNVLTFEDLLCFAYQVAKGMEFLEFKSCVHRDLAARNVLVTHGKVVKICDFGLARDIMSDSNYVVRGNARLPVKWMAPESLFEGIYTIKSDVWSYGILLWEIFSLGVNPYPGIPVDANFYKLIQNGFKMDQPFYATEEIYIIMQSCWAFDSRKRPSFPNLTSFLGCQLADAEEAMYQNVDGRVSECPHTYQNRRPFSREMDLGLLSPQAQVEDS

[2] = biological target: kinases (KINOMEscan panel) (Homo sapiens, UniProt Q9P1W9); settings: PIM2; NEW KINOMEscan
kinases (KINOMEscan panel) (Homo sapiens, UniProt Q9P1W9), sequence (Q9P1W9 whole entry): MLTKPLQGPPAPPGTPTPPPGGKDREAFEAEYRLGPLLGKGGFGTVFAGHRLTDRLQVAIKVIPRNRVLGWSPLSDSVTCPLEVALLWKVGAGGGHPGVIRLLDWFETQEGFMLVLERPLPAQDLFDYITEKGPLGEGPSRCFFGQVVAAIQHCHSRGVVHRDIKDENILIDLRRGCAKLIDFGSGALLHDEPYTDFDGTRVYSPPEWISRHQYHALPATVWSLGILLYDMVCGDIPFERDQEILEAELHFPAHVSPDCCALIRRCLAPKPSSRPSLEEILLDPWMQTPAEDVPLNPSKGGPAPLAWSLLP

[3] = biological target: T2, kinases (KINOMEscan panel) (Homo sapiens, UniProt Q99640); settings: kinase PKMYT1; NEW KINOMEscan
T2 sequence (Q99640 1-499): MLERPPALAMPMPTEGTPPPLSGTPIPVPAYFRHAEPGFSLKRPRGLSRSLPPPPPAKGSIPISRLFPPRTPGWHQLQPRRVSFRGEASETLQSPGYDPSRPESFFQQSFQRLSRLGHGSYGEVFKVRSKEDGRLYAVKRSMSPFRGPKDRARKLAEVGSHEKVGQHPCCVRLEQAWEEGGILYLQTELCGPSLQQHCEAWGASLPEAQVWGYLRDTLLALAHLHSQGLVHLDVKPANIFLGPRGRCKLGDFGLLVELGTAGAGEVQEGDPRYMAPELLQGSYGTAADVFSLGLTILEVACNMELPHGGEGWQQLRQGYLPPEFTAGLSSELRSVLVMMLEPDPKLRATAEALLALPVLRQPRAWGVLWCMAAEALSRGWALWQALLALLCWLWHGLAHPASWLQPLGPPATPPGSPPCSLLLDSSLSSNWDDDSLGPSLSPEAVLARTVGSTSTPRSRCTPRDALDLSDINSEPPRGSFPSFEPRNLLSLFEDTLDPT

[4] = biological target: kinases (KINOMEscan panel) (Homo sapiens, UniProt Q9BX84); settings: TRPM6; NEW KINOMEscan
kinases (KINOMEscan panel) (Homo sapiens, UniProt Q9BX84), sequence (Q9BX84 whole entry): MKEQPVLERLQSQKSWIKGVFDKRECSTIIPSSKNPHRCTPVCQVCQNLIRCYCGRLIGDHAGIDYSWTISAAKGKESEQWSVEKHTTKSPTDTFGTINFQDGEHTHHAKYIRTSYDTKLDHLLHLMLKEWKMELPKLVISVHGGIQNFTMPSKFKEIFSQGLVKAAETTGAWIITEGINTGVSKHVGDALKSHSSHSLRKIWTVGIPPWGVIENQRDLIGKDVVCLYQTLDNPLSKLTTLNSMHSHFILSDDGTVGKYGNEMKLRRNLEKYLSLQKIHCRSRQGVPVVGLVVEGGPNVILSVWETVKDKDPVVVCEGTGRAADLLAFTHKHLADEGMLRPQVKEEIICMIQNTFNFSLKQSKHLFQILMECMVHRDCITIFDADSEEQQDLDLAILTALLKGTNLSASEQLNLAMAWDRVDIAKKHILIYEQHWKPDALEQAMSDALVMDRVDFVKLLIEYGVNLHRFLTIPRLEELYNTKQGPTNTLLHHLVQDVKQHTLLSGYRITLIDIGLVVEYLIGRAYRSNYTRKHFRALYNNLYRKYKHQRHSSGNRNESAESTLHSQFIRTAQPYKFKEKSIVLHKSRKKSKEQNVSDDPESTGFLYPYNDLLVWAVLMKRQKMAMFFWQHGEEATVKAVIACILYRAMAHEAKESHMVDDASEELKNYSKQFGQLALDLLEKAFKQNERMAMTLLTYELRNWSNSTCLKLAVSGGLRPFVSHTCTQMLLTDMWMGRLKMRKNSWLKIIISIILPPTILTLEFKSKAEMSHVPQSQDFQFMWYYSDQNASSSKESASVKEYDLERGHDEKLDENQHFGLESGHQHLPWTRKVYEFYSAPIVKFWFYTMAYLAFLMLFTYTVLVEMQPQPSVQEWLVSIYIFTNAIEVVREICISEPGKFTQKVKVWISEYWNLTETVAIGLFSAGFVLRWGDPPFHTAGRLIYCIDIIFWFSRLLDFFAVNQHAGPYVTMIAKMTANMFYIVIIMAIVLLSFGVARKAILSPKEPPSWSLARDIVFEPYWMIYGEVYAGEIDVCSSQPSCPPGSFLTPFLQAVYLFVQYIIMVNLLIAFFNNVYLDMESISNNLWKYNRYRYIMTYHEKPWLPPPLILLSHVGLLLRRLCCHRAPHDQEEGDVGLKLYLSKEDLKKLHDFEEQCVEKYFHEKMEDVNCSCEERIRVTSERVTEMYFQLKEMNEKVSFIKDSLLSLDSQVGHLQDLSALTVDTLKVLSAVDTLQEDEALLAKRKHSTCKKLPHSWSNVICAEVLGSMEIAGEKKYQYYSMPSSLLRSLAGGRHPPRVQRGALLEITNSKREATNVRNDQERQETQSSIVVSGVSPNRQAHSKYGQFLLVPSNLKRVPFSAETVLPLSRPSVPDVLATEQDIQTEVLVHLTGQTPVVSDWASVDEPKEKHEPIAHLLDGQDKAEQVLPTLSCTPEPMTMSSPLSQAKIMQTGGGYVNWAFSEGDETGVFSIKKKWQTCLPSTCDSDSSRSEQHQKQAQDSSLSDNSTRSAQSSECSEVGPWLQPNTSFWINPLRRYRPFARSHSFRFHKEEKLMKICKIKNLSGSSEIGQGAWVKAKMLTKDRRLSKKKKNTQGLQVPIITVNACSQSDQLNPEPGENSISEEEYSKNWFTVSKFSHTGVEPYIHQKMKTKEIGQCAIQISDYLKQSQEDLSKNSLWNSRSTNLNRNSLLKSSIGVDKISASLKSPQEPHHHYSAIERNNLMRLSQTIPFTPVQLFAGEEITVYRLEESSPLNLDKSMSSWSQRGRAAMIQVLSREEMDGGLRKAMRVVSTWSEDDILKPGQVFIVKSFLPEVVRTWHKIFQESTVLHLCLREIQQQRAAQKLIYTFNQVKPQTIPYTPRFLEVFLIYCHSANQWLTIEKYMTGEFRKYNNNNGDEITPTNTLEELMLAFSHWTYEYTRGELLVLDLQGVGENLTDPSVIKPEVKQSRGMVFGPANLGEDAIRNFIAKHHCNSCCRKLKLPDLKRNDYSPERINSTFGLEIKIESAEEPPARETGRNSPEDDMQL

[5] = biological target: kinases (KINOMEscan panel) (Homo sapiens, UniProt P42336, H1047Y); settings: kinase PIK3CA(H1047Y); NEW KINOMEscan
kinases (KINOMEscan panel) (Homo sapiens, UniProt P42336, H1047Y), sequence (P42336 whole entry H1047Y): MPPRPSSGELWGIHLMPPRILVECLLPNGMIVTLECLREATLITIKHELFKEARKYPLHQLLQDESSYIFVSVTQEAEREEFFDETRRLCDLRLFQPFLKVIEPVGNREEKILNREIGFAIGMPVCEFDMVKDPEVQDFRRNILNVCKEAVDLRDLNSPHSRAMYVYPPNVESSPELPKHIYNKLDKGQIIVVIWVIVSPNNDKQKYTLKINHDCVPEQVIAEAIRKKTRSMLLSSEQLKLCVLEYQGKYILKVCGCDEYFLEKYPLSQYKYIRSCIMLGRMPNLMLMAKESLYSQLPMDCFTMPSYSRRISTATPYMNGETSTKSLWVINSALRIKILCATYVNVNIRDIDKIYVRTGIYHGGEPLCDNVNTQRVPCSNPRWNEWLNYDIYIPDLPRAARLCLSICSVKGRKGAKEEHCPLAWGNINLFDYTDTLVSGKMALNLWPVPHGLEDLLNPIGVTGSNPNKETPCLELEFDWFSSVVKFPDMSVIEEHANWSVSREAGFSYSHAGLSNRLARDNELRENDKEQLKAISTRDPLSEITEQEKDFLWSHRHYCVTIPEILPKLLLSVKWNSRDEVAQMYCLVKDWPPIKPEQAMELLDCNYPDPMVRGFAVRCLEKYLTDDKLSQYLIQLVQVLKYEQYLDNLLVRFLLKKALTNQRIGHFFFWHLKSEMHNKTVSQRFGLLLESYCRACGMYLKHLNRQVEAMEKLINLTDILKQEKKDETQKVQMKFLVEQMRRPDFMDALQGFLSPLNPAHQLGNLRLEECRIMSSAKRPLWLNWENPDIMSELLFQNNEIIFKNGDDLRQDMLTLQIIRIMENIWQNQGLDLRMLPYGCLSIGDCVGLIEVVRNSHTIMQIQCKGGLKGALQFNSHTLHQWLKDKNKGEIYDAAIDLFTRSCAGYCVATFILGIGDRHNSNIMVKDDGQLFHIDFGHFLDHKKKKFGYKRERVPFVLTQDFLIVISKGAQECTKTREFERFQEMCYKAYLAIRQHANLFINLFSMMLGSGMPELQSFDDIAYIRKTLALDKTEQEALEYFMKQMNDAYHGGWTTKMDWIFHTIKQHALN

[6] = biological target: T3, kinases (KINOMEscan panel) (Homo sapiens, UniProt P20794); settings: NEW KINOMEscan
T3 sequence (P20794 1-623): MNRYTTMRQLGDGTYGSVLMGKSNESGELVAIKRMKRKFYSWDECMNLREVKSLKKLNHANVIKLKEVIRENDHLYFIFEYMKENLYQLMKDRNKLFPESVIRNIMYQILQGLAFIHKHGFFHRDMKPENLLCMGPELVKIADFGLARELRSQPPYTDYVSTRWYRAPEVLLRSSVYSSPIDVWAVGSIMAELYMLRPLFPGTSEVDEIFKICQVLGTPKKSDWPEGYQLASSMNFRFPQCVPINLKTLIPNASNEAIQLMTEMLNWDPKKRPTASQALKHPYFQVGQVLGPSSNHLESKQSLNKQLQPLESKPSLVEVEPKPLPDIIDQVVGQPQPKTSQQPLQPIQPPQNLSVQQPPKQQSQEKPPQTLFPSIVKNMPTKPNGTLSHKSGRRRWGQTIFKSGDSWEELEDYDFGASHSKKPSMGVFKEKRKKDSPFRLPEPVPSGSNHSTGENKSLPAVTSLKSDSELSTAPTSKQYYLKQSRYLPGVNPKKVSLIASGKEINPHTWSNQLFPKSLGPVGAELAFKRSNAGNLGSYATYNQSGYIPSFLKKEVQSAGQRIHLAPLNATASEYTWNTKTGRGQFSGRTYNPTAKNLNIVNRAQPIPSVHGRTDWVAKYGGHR

## Cc1cccc(-c2nc(Nc3ccc4nn(C)cc4c3)c3ccccc3n2)n1 [NK167]
[1]
  KINOMEscan FLT3: 0
  KINOMEscan FLT3-autoinhibited: 0
[2]
  KINOMEscan PIM2: 2
[3]
  KINOMEscan PKMYT1: 0
[4]
  KINOMEscan TRPM6: 0
[5]
  KINOMEscan PIK3CA(H1047Y): 0
[6]
  KINOMEscan MAK or ALPK3: 0

## Cc1cccc(-c2nc(N(C)c3ccc4ncsc4c3)c3ccccc3n2)n1 [NK-161]
[1]
  KINOMEscan FLT3: 0
  KINOMEscan FLT3-autoinhibited: 0
[2]
  KINOMEscan PIM2: 18
[3]
  KINOMEscan PKMYT1: 0
[4]
  KINOMEscan TRPM6: 0
[5]
  KINOMEscan PIK3CA(H1047Y): 4
[6]
  KINOMEscan MAK or ALPK3: 5
